From ChEMBL document CHEMBL5465560, “Selectivity Literature for EUbOPEN Chemogenomic Library” (2024)
Blank lines part the entries; values can stand above or below the molecule they belong to.

Experiments:
[1] = target: T1, Cyclin-dependent kinase 11A (Homo sapiens) (UniProt Q9UQ88); details: at 10 µM
T1 sequence (whole entry): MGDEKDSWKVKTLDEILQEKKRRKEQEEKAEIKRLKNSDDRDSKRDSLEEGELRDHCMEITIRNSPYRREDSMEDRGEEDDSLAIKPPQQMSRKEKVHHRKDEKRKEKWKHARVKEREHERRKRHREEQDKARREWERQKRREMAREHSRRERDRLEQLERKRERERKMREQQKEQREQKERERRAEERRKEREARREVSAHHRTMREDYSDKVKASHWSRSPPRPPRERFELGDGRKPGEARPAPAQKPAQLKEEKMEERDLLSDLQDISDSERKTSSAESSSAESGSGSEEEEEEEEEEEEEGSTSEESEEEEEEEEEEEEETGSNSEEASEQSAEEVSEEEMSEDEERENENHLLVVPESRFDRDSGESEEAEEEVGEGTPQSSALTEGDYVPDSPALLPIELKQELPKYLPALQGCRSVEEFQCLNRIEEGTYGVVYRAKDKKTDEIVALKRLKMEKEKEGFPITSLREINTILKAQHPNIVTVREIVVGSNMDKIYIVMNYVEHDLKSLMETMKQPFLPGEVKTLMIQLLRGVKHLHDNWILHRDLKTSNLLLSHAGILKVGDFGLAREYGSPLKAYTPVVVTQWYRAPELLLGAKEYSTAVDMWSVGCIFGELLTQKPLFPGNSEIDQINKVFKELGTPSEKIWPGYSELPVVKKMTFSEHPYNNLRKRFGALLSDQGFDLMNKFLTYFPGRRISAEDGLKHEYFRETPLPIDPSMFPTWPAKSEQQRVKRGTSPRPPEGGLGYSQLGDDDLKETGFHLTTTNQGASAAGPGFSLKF

[2] = target: Dual specificity protein kinase CLK1 (Homo sapiens, UniProt P49759); assay: Selectivity interaction (KinomeScan (DiscoverX)) EUB0000607a CLK1; details: at 10 µM
[3] = target: Serine/threonine-protein kinase/endoribonuclease IRE1 (Homo sapiens) (UniProt O75460); assay: Selectivity interaction (KinomeScan (DiscoverX)) EUB0000607a ERN1; details: at 10 µM
[4] = target: Ribosomal protein S6 kinase alpha-2 (Homo sapiens) (UniProt Q15349); assay: Selectivity interaction (ActivX KiNativ screen (ex vivo kinase selectivity in human PBMCs)) EUB0001619a RPS6KA2; format: cell-based; details: PBMC, at 1 µM
[5] = target: T2, Mitogen-activated protein kinase kinase kinase 2 (Homo sapiens) (UniProt Q9Y2U5); assay: Selectivity interaction (ActivX KiNativ screen (ex vivo kinase selectivity in human PBMCs)) EUB0001619a MAP3K2; format: cell-based; details: PBMC, at 1 µM
T2 sequence (whole entry): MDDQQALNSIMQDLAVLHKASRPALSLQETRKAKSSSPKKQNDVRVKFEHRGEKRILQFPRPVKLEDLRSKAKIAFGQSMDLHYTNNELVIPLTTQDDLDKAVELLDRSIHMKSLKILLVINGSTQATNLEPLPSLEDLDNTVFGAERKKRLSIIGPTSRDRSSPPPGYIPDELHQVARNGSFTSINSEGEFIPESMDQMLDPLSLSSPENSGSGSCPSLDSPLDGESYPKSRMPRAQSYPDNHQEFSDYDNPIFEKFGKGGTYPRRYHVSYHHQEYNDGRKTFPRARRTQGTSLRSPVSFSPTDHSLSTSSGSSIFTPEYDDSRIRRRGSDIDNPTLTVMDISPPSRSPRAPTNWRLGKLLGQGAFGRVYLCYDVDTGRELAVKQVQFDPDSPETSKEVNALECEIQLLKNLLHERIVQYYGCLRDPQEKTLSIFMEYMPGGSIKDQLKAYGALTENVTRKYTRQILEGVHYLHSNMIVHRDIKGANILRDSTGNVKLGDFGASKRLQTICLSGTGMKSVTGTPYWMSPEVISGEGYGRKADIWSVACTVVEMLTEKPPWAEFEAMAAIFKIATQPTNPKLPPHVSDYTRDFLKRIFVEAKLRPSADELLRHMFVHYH

[6] = target: T1, Cyclin-dependent kinase 11A (Homo sapiens); assay: Selectivity interaction (Kinase panel (KiNativ target engagement assay in Jurkat cells)) EUB0001635a CDK11A; format: cell-based; details: Selectivity number of off-targets 0.0, Selectivity number of targets 233.0, Source Knowledge https://www.sciencedirect.com/science/article/pii/S2451945619300674?via%3Dihub, at 1 µM
[7] = target: T3, Serine/threonine-protein kinase D3 (Homo sapiens) (UniProt O94806); assay: Selectivity interaction (Kinase panel (Z-LYTE Assay)) EUB0001632a PRKD3; details: at 10 µM
T3 sequence (whole entry): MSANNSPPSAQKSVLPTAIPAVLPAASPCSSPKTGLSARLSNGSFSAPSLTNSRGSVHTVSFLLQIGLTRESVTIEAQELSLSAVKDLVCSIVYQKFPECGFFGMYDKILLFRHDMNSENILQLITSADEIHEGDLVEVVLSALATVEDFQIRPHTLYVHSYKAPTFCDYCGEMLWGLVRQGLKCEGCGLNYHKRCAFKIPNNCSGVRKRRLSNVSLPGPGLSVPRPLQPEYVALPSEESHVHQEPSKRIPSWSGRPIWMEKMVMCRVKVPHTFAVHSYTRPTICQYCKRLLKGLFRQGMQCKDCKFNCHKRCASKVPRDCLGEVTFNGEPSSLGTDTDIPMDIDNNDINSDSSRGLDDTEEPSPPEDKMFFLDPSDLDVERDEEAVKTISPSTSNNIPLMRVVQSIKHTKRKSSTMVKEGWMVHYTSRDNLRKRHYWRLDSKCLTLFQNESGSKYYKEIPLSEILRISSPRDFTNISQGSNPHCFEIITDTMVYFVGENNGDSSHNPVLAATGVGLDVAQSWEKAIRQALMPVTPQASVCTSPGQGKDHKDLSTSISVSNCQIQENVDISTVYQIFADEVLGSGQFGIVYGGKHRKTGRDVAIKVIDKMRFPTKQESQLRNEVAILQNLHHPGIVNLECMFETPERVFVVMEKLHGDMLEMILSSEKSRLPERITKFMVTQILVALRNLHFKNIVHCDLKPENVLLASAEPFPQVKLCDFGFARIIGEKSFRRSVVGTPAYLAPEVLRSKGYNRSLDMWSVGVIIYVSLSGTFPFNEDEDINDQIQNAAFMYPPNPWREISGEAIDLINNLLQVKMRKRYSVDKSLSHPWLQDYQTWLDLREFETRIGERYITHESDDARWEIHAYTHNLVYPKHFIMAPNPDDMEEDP

Chain of Dual specificity protein kinase CLK1 (P49759 whole entry, looked up): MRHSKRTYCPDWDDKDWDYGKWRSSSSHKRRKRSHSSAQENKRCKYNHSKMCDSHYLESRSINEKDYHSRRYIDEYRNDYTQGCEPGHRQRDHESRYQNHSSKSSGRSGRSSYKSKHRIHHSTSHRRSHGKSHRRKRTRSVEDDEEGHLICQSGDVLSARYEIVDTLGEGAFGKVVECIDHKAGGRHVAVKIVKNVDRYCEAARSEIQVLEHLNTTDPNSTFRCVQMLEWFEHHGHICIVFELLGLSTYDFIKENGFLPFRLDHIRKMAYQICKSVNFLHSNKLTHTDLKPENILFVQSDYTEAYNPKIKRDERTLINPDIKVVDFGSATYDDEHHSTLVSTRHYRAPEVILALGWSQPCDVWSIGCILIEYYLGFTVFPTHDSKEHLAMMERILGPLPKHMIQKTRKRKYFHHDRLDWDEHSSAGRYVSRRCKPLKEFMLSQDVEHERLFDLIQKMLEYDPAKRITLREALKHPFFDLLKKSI
Chain of Ribosomal protein S6 kinase alpha-2 (Homo sapiens) (Q15349 whole entry): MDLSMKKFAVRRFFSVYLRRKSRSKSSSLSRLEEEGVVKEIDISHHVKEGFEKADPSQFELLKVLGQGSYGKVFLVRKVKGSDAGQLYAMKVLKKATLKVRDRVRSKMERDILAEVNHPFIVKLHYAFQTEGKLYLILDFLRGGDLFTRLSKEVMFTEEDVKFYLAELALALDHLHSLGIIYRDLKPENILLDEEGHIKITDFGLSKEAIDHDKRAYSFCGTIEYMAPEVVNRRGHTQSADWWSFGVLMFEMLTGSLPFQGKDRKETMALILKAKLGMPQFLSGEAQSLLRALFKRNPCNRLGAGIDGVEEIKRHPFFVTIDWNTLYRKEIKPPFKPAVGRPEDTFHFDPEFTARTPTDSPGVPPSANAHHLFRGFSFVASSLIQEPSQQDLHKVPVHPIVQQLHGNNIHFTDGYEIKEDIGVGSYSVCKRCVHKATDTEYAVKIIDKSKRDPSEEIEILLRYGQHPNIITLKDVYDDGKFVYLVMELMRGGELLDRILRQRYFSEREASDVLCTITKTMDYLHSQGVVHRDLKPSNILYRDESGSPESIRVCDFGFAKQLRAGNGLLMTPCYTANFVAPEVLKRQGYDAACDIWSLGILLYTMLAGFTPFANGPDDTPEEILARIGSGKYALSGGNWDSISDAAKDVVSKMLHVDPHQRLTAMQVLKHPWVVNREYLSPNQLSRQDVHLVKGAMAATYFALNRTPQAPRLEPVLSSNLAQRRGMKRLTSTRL
Chain of Serine/threonine-protein kinase/endoribonuclease IRE1 (Homo sapiens) (O75460 19-977 limits assumed): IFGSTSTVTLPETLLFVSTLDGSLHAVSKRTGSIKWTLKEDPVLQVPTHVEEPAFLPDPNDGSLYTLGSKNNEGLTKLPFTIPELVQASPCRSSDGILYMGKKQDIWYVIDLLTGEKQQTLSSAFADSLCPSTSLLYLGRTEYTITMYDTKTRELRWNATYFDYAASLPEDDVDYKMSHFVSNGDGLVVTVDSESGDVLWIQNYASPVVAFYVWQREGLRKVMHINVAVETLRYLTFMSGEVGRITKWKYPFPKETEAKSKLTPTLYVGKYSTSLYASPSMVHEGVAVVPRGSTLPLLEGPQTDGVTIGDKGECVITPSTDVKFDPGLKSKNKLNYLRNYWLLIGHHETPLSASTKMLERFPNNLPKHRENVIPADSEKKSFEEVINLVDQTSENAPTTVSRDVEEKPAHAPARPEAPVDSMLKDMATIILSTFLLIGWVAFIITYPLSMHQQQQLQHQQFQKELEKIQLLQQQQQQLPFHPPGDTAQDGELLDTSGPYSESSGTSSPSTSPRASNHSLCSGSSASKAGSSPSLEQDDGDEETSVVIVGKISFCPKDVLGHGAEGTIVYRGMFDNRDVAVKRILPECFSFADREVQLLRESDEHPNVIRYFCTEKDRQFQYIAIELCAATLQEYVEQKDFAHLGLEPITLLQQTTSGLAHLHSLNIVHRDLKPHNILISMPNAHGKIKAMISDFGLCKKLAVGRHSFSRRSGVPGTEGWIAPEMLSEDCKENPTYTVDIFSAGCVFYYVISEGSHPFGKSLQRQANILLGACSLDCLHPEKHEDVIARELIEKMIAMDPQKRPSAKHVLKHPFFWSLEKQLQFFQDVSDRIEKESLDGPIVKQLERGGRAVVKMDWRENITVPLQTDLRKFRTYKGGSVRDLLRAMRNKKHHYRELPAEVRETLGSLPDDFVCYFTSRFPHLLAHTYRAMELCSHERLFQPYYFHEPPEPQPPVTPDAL

- % of control [1]: 100%
Structure (SMILES): CCN(CC)CCCCNc1ncc2cc(-c3cc(OC)cc(OC)c3)c(NC(=O)NC(C)(C)C)nc2n1

Structure (SMILES): CNC(=O)Nc1ccc(-c2nc(N3CC4CCC(C3)O4)c3cnn(C4CCC5(CC4)OCCO5)c3n2)cc1
- % of control [2]: 29%
- % of control [3]: 93%

Structure (SMILES): N#Cc1cccc(-c2c[nH]c3ncnc(N4CCOCC4)c23)c1
- % of inhibition [4]: 13%
- % of inhibition [5]: 13%

Structure (SMILES): C=CC(=O)Nc1ccc(C(=O)Nc2[nH]nc3c2CN(C(=O)N[C@H](CN(C)C)c2ccccc2)C3(C)C)cc1
- % of engagement [6]: -15.7%

- % of control [7]: 1.79%
Structure (SMILES): Cn1cc(-n2cnc3c(NCc4nc5cc(Cl)c(Cl)cc5[nH]4)nc(N4CCOCC4)nc32)cn1
